Results as given in EP0539587A1, “ANTI[…]” (TSUMURA & CO., priority 1991, dated 1992).
Structures can show the parent of a compound that is named as a salt.

What was measured:
[1] = target: Human immunodeficiency virus reverse transcriptase (Human immunodeficiency virus type 1 group M subtype B, UniProt P04585); test: Effects on reverse transcriptase activity ([3H]deoxythymidine triphosphate uptake into DNA); assay type: biochemical; conditions: reverse transcriptase inhibitory activity; 30 minutes at 37°C; polyrA-oligo dT template-primer; read-out: 50% inhibitory concentration (IC50) (converted)
Procedure: A reaction mixture having the composition indicated below was prepared.
50 µl of this reaction mixture was allowed to react for 30 minutes at 37°C.
Quantitative determination of the reaction product in the form of DNA was performed by measuring the uptake of the radioactivity of [³H]deoxythymidine triphosphate into DNA using ion exchange filter paper, taking that to represent reverse transcriptase inhibitory activity, and calculating the 50% inhibitory concentration (IC₅₀) of the test compound.

[2] = tested on: human immunodeficiency virus; test: Test of anti-AIDS virus activity using clone H9 cells (p24 antigen in culture supernatant); assay type: cell-based; conditions: Human immunodeficiency virus 1, 120 h, p24 antigen in culture supernatant after 5 days, read-out: Rate of Inhibition (%)
Procedure: 1 x 10⁶ clone H9 cells (©T-cells) were placed in individual culture tubes. The serially diluted test drug was then placed in each tube. Roughly 100TCID₅₀ of human immunodeficiency virus (culture supernatant of H9/HTLV-IIIB cells) were then placed in each tube to infect the above-mentioned cells. After incubating the tubes for 1 hour at 37°C in the presence of 5% CO₂, the unabsorbed viral particles and test substance were removed by centrifugal separation (x3000 g, 5 minutes). Moreover, after again centrifugally washing (x3000 g, 5 minutes) the cells with fresh culture liquid, fresh culture liquid was added to each tube to prepare cell suspensions having a concentration of 0.2 x 10⁶ cells per milliliter. 0.5 ml of these cell suspensions were added to each well of a 24 well culture plate containing 0.5 ml of the serially diluted test drug. After incubating this plate for 5 days at 37°C in the presence of 5% CO₂, the amount of p24, which is the human immunodeficiency virus antigen in the culture supernatant, was measured, followed by calculation of the rate of inhibition (%) at the concentrations of the test drug indicated below.

`O=C(O)/C=C(\C(=O)O[C@H]1[C@@H]2OC(=O)c3cc(O)c(O)c(O)c3-c3c(cc(O)c(O)c3O)C(=O)OC[C@H]1O[C@@H](OC(=O)c1cc(O)c(O)c(O)c1)[C@@H]2O)[C@H]1c2c(cc(O)c(O)c2O)C(=O)O[C@@H]1C(=O)O` [Specific Example 1, repandusinic acid A monopotassium salt] showed an IC50 [1] of 0.103 µM, an inhibition at 0.195 µg/mL ([2]; 0.195 µg/ml) of 27.8% and an inhibition at 3.125 µg/mL ([2]; 3.125 µg/ml) of 66.7%. The inhibition at 12.5 µg/mL ([2]; 12.5 µg/ml) was 94.4%.
